pIC50: −log10 of the molar value.
Legend:
[1] = system: Erythrocytes collected from BALB/c mice; experiment: Hemolytic activity; format: cell-based; settings: 6.25 to 200 µM, 2 h
Experimental: Erythrocytes collected from BALB/c mice were added to a U-shaped bottom 96-wells microplate at 3% (vol/vol) in phosphate-buffered saline (PBS), treated with compound 1 serially diluted ([…] to 200 µM) in PBS and incubated for 2 h at 24°C. To determine the hemolytic activity, cell supernatants were collected and analyzed in a spectrophotometer (570 nm) ([15]). Bidistilled water was employed as a positive control and untreated erythrocytes as a negative control.

[2] = system: L. (L.) infantum promastigotes; experiment: Total proteins of the parasite; format: cell-based, Leishmania (L.) infantum; settings: promastigotes after treatment
[3] = system: L. (L.) infantum promastigotes; experiment: Intracellular Ca2+ (Fluo-4 AM); format: cell-based, Leishmania (L.) infantum; settings: 169.2 µM, from 20 min up to 4 h, vs untreated
Experimental: Promastigotes (2 × 10^6/well) were pretreated with Fluo-4 AM (5 µM) in PBS, for 1 h at 24°C. Then, parasites were treated with compound 1 (169.2 µM). Fluorescence was measured every 20 min up to 4 h in a spectrofluorometer, with excitation and emission wavelengths of 485 nm and 535 nm, respectively ([21]). Triton X-100 0.5% (vol/vol) was employed as positive control and untreated parasites as negative control.

[4] = system: L. (L.) infantum promastigotes; experiment: DNA content / integrity (agarose gel electrophoresis); format: cell-based, Leishmania (L.) infantum; settings: compound 1 169.2 µM, H2O2 10 mM; 24 h; 2% agarose gel
Experimental: Promastigotes (1 × 10^7/well) were treated with compound 1 (169.2 μM) in M199 medium supplemented with 10% FBS and 0.25% hemin, pH 7.2, for 24 h at 24°C. Then, the genetic material was extracted using the QIAamp DNA Mini Kit, according to the manufacturer’s instructions. Total DNA quantification was performed in a NanoDrop ND-1000 spectrophotometer (260/280 nm). The purified genetic material (300 ng) was analyzed by electrophoresis for 1 h at […] in a 2% agarose gel with ethidium bromide (0.5 µg/mL). Visualization was performed under UV light in a MiniBIS Pro transilluminator (DNR Bio Imaging System) ([21]). H2O2 (10 mM) was employed as positive control and untreated parasites as negative control ([26]).

[5] = system: L. (L.) infantum promastigotes; experiment: Mitochondrial membrane electric potential (JC-1, flow cytometry); format: cell-based, Leishmania (L.) infantum; settings: compound 1 169.2 µM, CCCP 10 µM; 2 and 4 h; JC-1 BL-2/BL-1 ratio; vs untreated
Experimental: Promastigotes (2 × 10^6/well) were treated with compound 1 (169.2 µM) for 2 and 4 h, at 24°C. Then, JC-1 (10 µM) was added and the parasites were incubated for 20 min. Fluorescence was measured in a flow cytometer with an excitation wavelength of 488 nm and emission of 530 (BL-1) and 574 nm (BL-2). Mitochondrial membrane potential was established through the ratio of BL-2/BL-1 channels ([19]). Carbonyl cyanide m-chlorophenylhydrazone (CCCP) (10 µM) was employed as positive control and untreated parasites as negative control.

[6] = system: L. (L.) infantum promastigotes; experiment: Acidocalcisomes alkalinization (acridine orange); format: cell-based, Leishmania (L.) infantum; settings: compound 1 169.2 µM, nigericin 4 µM; after 20 min; vs untreated
Experimental: Promastigotes (2 × 10^6/well) were pretreated with acridine orange (4 µM) in PBS, for 5 min at 24°C. The parasites were treated with compound 1 (169.2 µM). Fluorescence was monitored every 20 min up to 4 h in a spectrofluorometer, with excitation and emission wavelengths of 485 and 535 nm, respectively ([22]). Nigericin (4 µM) was employed as positive control and untreated parasites as negative control ([23]).

[7] = system: L. (L.) infantum promastigotes; format: cell-based, Leishmania (L.) infantum; settings: compound 1 169.2 µM, sodium azide 10 mM; 2 and 4 h; H2DCFDA; vs untreated
Experimental: Promastigotes (2 × 10^6/well) were treated with compound 1 (169.2 µM) for 2 and 4 h, at 24°C. Later, H2DCFDA (5 µM) was added and the parasites were incubated for 15 min. Fluorescence was monitored in a spectrofluorometer with excitation and emission wavelengths of 485 and 535 nm, respectively ([19]). Sodium azide (10 mM) was employed as positive control and untreated parasites as negative control.

[8] = system: amastigotes of L. (L.) infantum; settings: cited from earlier work
[9] = system: L. (L.) infantum promastigotes; experiment: Cell cycle (propidium iodide, flow cytometry); format: cell-based, Leishmania (L.) infantum; settings: 24 h; compound 1 169.2 µM, miltefosine 25 µM
Experimental: Promastigotes (2 × 10^6/well) in exponential phase, were treated with compound 1 (169.2 µM) in M199 medium supplemented with 10% FBS and 0.25% hemin, pH 7.2, for 24 h at 24°C. In sequence, 70% (vol/vol) ice-cold ethanol was used for cell permeabilization overnight at −20°C. Then, the parasites were incubated with propidium iodide (10 µg/mL) and RNase A (20 µg/mL) for 30 min. […] Miltefosine (25 µM) was employed as positive control and untreated parasites as negative control ([25]).

[10] = system: L. (L.) infantum promastigotes; experiment: Ultrastructural studies (transmission electron microscopy); format: cell-based, Leishmania (L.) infantum; settings: 169.2 µM, TEM
Experimental: Promastigotes (3 × 10^7 parasites/well) were treated with compound 1 (169.2 µM) for 2, 4, and 6 h at 24°C. Subsequently, parasites were fixed in glutaraldehyde solution (2.5% wt/vol) and post-fixed in osmium tetroxide (1% wt/vol). The samples were gradually dehydrated in acetone and embedded in Epon 812 resin. Ultrathin sections were stained with uranyl acetate and lead citrate ([27]). The material was analyzed under a transmission electron microscope (JEOL JEM-1011). Untreated parasites were employed as a negative control.

C=CCc1cc(OC)c(OCc2ccc(OC)cc2)c(Oc2ccc(CN3CCOCC3)cc2OC)c1 [compound 1, 4-(4-(5-allyl-3-methoxy-2-((4-methoxybenzyl)oxy)phenoxy)-3-methoxybenzyl)morpholine]
hemolysis [1]: no hemolysis
total protein level [2]: increased level of total protein
intracellular Ca2+ level [3]: fast and increased Ca^2+ level
integrity of the genetic content (DNA) [4]: no alterations
mitochondrial membrane electric potential (ΔΨm) [5]: significant depolarization
acridine orange fluorescence levels (acidocalcisomes) [6]: significantly higher
ROS levels [7]: significant reduction
pIC50 ([8]; intracellular amastigotes, 24 h incubation, read-out: IC50 against amastigotes of L. (L.) infantum): 5.01
SI ([8]; selectivity index): > 20
Proportion of parasites in different phases of the cell cycle (% ± SD): G0/G1 [9]: 46.6 ± 0.7 %
Proportion of parasites in different phases of the cell cycle (% ± SD): M/G2 [9]: 17.9 ± 0.5%
Proportion of parasites in different phases of the cell cycle (% ± SD): S [9]: 11.1 ± 1.3%
Proportion of parasites in different phases of the cell cycle (% ± SD): Sub G0 [9]: 7.5 ± 0.7 %
ultrastructural alterations ([10]; 2 h): increased volume of the mitochondria
ultrastructural alterations ([10]; all studied times (2, 4, 6 h)): autophagic vacuoles were observed in the cytoplasm
ultrastructural alterations ([10]; later times of incubation (4 h, 6 h)): losses of mitochondrial cristae
